In one assay the target is Plasminogen (Homo sapiens, UniProt P00747). The experiment in a line: Inhibition of plasmin.
For assay [1], the target named is T1, Suppressor of tumorigenicity 14 protein (Homo sapiens, UniProt Q9Y5Y6).
T1 sequence (Q9Y5Y6 whole entry): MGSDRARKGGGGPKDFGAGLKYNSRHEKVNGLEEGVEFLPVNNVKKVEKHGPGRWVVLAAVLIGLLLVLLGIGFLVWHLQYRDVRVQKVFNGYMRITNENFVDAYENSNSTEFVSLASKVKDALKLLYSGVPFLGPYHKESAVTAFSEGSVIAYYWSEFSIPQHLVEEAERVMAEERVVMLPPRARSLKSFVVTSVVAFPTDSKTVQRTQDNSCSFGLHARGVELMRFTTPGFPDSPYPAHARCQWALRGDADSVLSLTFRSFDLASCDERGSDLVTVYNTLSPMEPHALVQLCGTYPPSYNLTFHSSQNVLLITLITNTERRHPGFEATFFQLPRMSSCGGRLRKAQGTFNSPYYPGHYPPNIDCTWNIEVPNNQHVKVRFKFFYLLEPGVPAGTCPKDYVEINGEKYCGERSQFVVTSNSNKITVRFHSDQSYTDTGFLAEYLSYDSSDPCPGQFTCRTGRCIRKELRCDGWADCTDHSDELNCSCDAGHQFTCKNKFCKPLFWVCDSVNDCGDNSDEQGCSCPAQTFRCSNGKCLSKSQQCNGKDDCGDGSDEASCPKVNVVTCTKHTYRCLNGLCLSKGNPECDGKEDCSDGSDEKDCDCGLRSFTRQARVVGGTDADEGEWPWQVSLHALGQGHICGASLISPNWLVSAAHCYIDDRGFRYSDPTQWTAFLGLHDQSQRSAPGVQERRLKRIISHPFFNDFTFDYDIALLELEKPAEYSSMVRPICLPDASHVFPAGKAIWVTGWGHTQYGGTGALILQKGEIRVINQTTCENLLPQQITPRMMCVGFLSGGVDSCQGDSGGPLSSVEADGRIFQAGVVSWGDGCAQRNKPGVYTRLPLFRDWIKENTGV
The experiment in a line: Inhibition of matriptase.

For another assay, the target named is Coagulation factor X (Homo sapiens, UniProt P00742). The experiment in a line: Inhibition of factor 10a.
Another assay has as its target Prothrombin (Homo sapiens, UniProt P00734). Nature of the assay: Inhibition of thrombin.
Assay [2] addresses Urokinase-type plasminogen activator (Homo sapiens, UniProt P00749). The experiment in a line: Inhibition of uPA.

Some results are limits rather than exact numbers.

These results are taken from ChEMBL document CHEMBL1139302, “Modification of the N-terminal sulfonyl residue in 3-amidinophenylalanine-based matriptase inhibitors” (Bioorg Med Chem Lett, 2009).

Chain of Plasminogen (P00747 97-580 limits assumed): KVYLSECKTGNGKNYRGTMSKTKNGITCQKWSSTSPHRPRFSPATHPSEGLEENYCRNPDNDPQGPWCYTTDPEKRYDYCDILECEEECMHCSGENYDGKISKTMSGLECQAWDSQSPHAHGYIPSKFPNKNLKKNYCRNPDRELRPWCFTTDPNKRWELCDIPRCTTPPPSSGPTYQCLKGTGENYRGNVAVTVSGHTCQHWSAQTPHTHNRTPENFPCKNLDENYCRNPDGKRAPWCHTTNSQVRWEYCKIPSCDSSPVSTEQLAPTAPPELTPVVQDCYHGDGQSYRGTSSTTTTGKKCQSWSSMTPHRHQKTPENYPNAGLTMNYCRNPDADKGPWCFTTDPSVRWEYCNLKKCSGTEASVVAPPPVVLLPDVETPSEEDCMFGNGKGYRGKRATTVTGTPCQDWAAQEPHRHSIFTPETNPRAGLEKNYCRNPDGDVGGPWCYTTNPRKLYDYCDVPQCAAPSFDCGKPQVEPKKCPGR
Chain of Plasminogen (P00747 581-810 limits assumed): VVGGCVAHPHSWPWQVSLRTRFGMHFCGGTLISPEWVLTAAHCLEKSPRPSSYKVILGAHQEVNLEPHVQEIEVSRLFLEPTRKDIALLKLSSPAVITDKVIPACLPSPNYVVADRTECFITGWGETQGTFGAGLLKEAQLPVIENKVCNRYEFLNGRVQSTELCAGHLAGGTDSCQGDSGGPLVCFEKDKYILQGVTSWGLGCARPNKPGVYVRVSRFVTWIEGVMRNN
Chain of Coagulation factor X (P00742 41-179 limits assumed): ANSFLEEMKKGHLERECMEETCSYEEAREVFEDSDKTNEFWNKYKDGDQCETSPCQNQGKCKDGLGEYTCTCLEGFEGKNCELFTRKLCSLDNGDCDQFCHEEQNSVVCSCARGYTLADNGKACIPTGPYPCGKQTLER
Chain of Coagulation factor X (P00742 235-488 limits assumed): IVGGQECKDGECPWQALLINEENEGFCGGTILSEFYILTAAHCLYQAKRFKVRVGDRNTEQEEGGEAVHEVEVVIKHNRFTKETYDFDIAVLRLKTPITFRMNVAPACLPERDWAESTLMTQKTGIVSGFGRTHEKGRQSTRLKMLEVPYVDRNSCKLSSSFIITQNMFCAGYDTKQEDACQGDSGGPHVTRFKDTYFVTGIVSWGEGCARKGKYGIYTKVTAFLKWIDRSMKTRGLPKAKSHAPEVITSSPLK

Consider `NCCC(=O)Nc1cccc(S(=O)(=O)N[C@@H](Cc2ccc(CN)cc2)C(=O)N2CCC(CCN)CC2)c1`, for which the Ki on Plasminogen was 64.8 µM; in assay [1], 2.8 µM; at Coagulation factor X, 430 µM; on Prothrombin, 325 µM; in assay [2], more than 1000 µM.
For the molecule `NCCC(=O)Nc1cccc(S(=O)(=O)N[C@@H](CCCc2ccccc2)C(=O)N2CCC(CCN)CC2)c1`, the inhibitory constant (Ki) in assay [1] is more than 1000 µM.
With `N=C(N)c1cccc(CC(NS(=O)(=O)c2cccc(-c3ccc4[nH]ccc4c3)c2)C(=O)N2CCC(CCN)CC2)c1` (racemic), the Ki at Plasminogen worked out at 0.38 µM; at Coagulation factor X it was 0.15 µM; on Prothrombin, 0.19 µM; in assay [2] it was 6.2 µM.
Turning to `NCCC(=O)Nc1cccc(S(=O)(=O)N[C@@H](Cc2cccc(CN)c2)C(=O)N2CCC(CCN)CC2)c1`, the Ki at Plasminogen is 16 µM; on Coagulation factor X, 92 µM; at Prothrombin it was more than 1000 µM; in assay [2] it was more than 1000 µM.
Consider `CCC(=O)Nc1cccc(S(=O)(=O)N[C@@H](Cc2cccc(C(=N)N)c2)C(=O)N2CCC(CCN)CC2)c1`, for which the Ki was 3.5 µM on Plasminogen; 0.18 µM in assay [1]; 20 µM at Coagulation factor X; 1.9 µM at Prothrombin; 8.1 µM in assay [2].
For `COc1ccc(-c2cccc(S(=O)(=O)NC(Cc3cccc(C(=N)N)c3)C(=O)N3CCC(CCN)CC3)c2)cc1` (racemic) the same measures were 0.12 µM, 0.007 µM, 0.36 µM, 0.04 µM and 10 µM.
Turning to `N=C(N)c1cccc(C[C@H](NS(=O)(=O)c2cccc(NC(=O)CCO)c2)C(=O)N2CCC(CCN)CC2)c1`, the inhibition constant (Ki) was found to be 2.6 µM at Plasminogen, 61 µM on Coagulation factor X, 5.5 µM on Prothrombin and 3 µM in assay [2].
`N=C(N)c1cccc(CC(NS(=O)(=O)c2cccc(-c3ccccc3Cl)c2)C(=O)N2CCC(CCN)CC2)c1` (racemic): the Ki on Plasminogen is 0.085 µM; on Coagulation factor X, 0.7 µM; on Prothrombin, 0.011 µM; in assay [2] it was 12 µM.
Take `N=C(N)c1cccc(CC(NS(=O)(=O)c2cccc(-c3cccc(Cl)c3)c2)C(=O)N2CCC(CCN)CC2)c1` (racemic): the Ki on Plasminogen is 0.334 µM; on Coagulation factor X it was 5.6 µM; at Prothrombin, 0.051 µM; in assay [2], 12 µM.
Regarding `N=C(N)c1cccc(C[C@H](NS(=O)(=O)c2cccc(NC(=O)C3CNC3)c2)C(=O)N2CCC(CCN)CC2)c1`, the Ki on Plasminogen turned out to be 0.5 µM; in assay [1], 0.003 µM; on Coagulation factor X it was 11.2 µM; on Prothrombin, 5.1 µM; in assay [2], 3.7 µM.
Take `N=C(N)c1cccc(CC(NS(=O)(=O)c2cccc(-c3ccccc3)c2)C(=O)N2CCC(CCN)CC2)c1` (racemic): the Ki at Plasminogen was found to be 0.55 µM; in assay [1] it was 0.11 µM; on Coagulation factor X, 5.4 µM; at Prothrombin, 0.056 µM; in assay [2], 8.3 µM.
Turning to `CCOC(=O)Nc1cccc(S(=O)(=O)N[C@@H](Cc2cccc(C(=N)N)c2)C(=O)N2CCC(CCN)CC2)c1`, the Ki worked out at 2.1 µM on Plasminogen; 0.041 µM in assay [1]; 14 µM on Coagulation factor X; 1.2 µM on Prothrombin; 3.2 µM in assay [2].
`N=C(N)c1cccc(C[C@H](NS(=O)(=O)c2cccc(NC(=O)CCN)c2)C(=O)N2CCC(CCN)CC2)c1` displayed a Ki in assay [1] of 0.0038 µM.
For `N=C(N)c1cccc(C[C@H](NS(=O)(=O)c2cccc(-c3ccc(N)nc3)c2)C(=O)N2CCC(CCN)CC2)c1`, the Ki at Plasminogen was found to be 0.23 µM; in assay [1] it was 0.0016 µM; at Coagulation factor X, 0.25 µM; at Prothrombin, 0.11 µM; in assay [2], 3.6 µM.
With `COc1ccc(-c2cccc(S(=O)(=O)NC(Cc3cccc(CN)c3)C(=O)N3CCC(CCN)CC3)c2)cc1` (racemic), the Ki on Plasminogen amounted to 0.776 µM; at Coagulation factor X it was 55 µM; on Prothrombin, 9.8 µM; in assay [2], 129 µM.
With `CC(C)Oc1ccc(-c2cccc(S(=O)(=O)NC(Cc3cccc(C(=N)N)c3)C(=O)N3CCC(CCN)CC3)c2)cc1` (racemic), the inhibition constant Ki amounted to 0.08 µM at Plasminogen, 3.4 µM on Coagulation factor X, 0.24 µM at Prothrombin and 9.6 µM in assay [2].
The matching figures for `N=C(N)c1cccc(CC(NS(=O)(=O)c2cccc(-c3ccncc3)c2)C(=O)N2CCC(CCN)CC2)c1` (racemic): 0.11 µM, 1.6 µM, 0.16 µM and 3.7 µM.
Regarding `N=C(N)c1cccc(C[C@H](NS(=O)(=O)c2cccc(CCCCN)c2)C(=O)N2CCC(CCN)CC2)c1`, the Ki at Plasminogen was found to be 0.2 µM; in assay [1], 0.001 µM; on Coagulation factor X, 4.4 µM; at Prothrombin, 0.46 µM; in assay [2], 3.8 µM.
On to `NCCC(=O)Nc1cccc(S(=O)(=O)N[C@@H](CCc2ccccc2)C(=O)N2CCC(CCN)CC2)c1`, for which, in assay [1], the Ki is more than 1000 µM.
For `N=C(N)c1cccc(C[C@H](NS(=O)(=O)c2cccc(NCCCN)c2)C(=O)N2CCC(CCN)CC2)c1`, the Ki came out at 0.46 µM on Plasminogen; 0.0067 µM in assay [1]; 8 µM at Coagulation factor X; 2.2 µM at Prothrombin; 5.2 µM in assay [2].
In the case of `N=C(N)c1cccc(CC(NS(=O)(=O)c2cccc(-c3ccc(Cl)cc3)c2)C(=O)N2CCC(CCN)CC2)c1` (racemic), the Ki at Plasminogen was 0.183 µM; at Coagulation factor X it was 0.91 µM; on Prothrombin it was 0.01 µM; in assay [2] it was 11 µM.
The matching figures for `CCc1ccc(-c2cccc(S(=O)(=O)NC(Cc3cccc(C(=N)N)c3)C(=O)N3CCC(CCN)CC3)c2)cc1` (racemic): 0.214 µM, 0.63 µM, 0.033 µM and 6.9 µM.
As for `N=C(N)c1cccc(C[C@H](NS(=O)(=O)c2cccc(C3CCC(N)=NC3)c2)C(=O)N2CCC(CCN)CC2)c1` (stereo partly specified), the inhibitory constant (Ki) was found to be 0.028 µM on Plasminogen; 8e-05 µM in assay [1]; 0.01 µM on Coagulation factor X; 0.52 µM at Prothrombin; 6.6 µM in assay [2].
Turning to `COc1ccc(-c2cccc(S(=O)(=O)NC(Cc3cccc(C(=N)N)c3)C(=O)N3CCC(CCN)CC3)c2)cc1OC` (racemic), the Ki at Plasminogen is 0.23 µM; on Coagulation factor X, 0.42 µM; on Prothrombin, 1.1 µM; in assay [2], 14 µM.
Regarding `N=C(N)c1cccc(CC(NS(=O)(=O)c2cccc(-c3cccnc3)c2)C(=O)N2CCC(CCN)CC2)c1` (racemic), the Ki on Plasminogen worked out at 1 µM; on Coagulation factor X, 3.5 µM; at Prothrombin, 0.15 µM; in assay [2], 11 µM.
As for `CCOc1ccc(-c2cccc(S(=O)(=O)NC(Cc3cccc(C(=N)N)c3)C(=O)N3CCC(CCN)CC3)c2)cc1` (racemic), the inhibitory constant (Ki) is 0.15 µM at Plasminogen; 0.006 µM in assay [1]; 0.66 µM on Coagulation factor X; 0.45 µM at Prothrombin; 8.6 µM in assay [2].
Molecule `NCCC(=O)Nc1cccc(S(=O)(=O)N[C@@H](Cc2ccccc2)C(=O)N2CCC(CCN)CC2)c1` gave a Ki in assay [1] of 10 µM.
For the molecule `Cc1nccc(-c2cccc(S(=O)(=O)N[C@@H](Cc3cccc(C(=N)N)c3)C(=O)N3CCC(CCN)CC3)c2)n1`, the Ki at Plasminogen was 0.21 µM; on Coagulation factor X it was 1.7 µM; at Prothrombin it was 0.31 µM; in assay [2], 8.7 µM.
